Like-named read-outs stand apart in the source and are kept apart here.
Assays:
[1] = ABTS radical cation scavenging assay; settings: for ABTS·+ scavenging activity, TEAC value: Trolox equivalent antioxidant capacity, ratio of slopes compound/Trolox; for ABTS·+ scavenging activity, TEAC value / IC50: 1 h incubation; for IC50: concentration reducing ABTS·+ by 50%; for radical-scavenging activity, ABTS method: result in words
Method: This assay is based on the production of a stable dark green ABTS cation-radical (ABTS^·+) by incubating ABTS ([2,2′-azino-bis(3-eth-ylbenzothiazoline-6-sulfonic acid diammonium salt)) with potassium persulfate. […] The ABTS radical-scavenging activity of the compounds was measured according to an established method[66] with some modifications, at 30 °С in the dark; incubation time was 1 hour. […] The results were expressed as TEAC values (Trolox equivalent antioxidant capacity) calculated by dividing the slope of ABTS^·+ concentration decrease versus the antioxidant concentration by the slope of the Trolox plot.
Radical scavenging activity of the compounds was assessed using an ABTS radical decolorization assay[66] with some minor modifications. ABTS (2,2′-azino-bis-(3-ethylbenzothiazoline-6-sulfonic acid) diammonium salt) was purchased from TCI (Tokyo, Japan); potassium persulfate (di-potassium peroxodisulfate) and Trolox (6-hydroxy-2,5,7,8-tetramethychroman-2-carboxylic acid were obtained from Sigma-Aldrich Chemical Co. (St. Louis, MO, USA). Ethanol was HPLC grade. Aqueous solutions were prepared using deionized water.
Trolox was used as the antioxidant standard. A 5 mM solution of Trolox was prepared in DMSO for use as stock. Fresh working solutions of known concentrations (1–100 μM) were prepared on the day of experiments and used for calibration and as positive controls for ABTS radical cation (ABTS^•+) scavenging activity. ABTS was dissolved in deionized water to a 7 mM concentration. […] Fresh working ABTS^•+ solution was prepared for each assay.
The radical scavenging capacity of the compounds was analyzed by mixing 10 μl of compound with 240 μl of ABTS^•+ working solution. […] Ethanol blanks were run in each assay. Values were obtained from three replicates of each sample and three independent experiments.
Antioxidant capacity as a Trolox equivalent (TEAC values) was determined as the ratio between the slopes obtained from the linear correlation for concentrations of test compounds and Trolox with absorbance of ABTS radical.

[2] = target: T1, porcine liver carboxylesterase (CaE) (Sus scrofa, UniProt Q29550); assay: CaE inhibition (4-nitrophenyl acetate hydrolysis); type: biochemical; settings: for % inhibition of CaE at 20 µM / inhibition at 20 µM: mean ± SEM, n ≥ 3, n.a. = not active at 20 µM; for IC50: read-out: IC50 CaE
T1 sequence (Q29550 19-566): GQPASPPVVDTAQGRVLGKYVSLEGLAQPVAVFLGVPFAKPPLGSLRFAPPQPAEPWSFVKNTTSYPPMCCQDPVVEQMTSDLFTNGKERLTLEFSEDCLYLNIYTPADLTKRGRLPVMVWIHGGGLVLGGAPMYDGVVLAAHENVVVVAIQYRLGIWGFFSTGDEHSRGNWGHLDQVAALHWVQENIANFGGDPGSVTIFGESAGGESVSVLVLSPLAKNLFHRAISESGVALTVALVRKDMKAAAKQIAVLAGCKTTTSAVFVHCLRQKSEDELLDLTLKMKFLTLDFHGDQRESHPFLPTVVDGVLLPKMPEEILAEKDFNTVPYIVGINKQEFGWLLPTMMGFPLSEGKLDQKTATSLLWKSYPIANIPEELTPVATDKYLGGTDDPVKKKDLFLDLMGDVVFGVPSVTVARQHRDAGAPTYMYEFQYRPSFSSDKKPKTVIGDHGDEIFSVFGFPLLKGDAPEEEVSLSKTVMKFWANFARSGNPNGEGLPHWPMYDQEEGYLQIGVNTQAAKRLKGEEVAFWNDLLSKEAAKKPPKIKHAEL
Method: (§1) Acetylcholinesterase (AChE, EC 3.1.1.7, from human erythrocyte and E. electricus (EeAChE) (type VI-S), butyrylcholinesterase (BChE, EC 3.1.1.8, from equine serum), carboxylesterase (CaE, EC 3.1.1.1, from porcine liver), acetylthiocholine iodide (ATCh), butylthiocholine iodide (BTCh), 5,5′-dithiobis-(2-nitrobenzoic acid) (DTNB), 4-nitrophenyl acetate (4-NPA), were purchased from Sigma-Aldrich (Germany).
(§2) AChE and BChE activities were measured by the Ellman method as described earlier. The assay solution consisted of 0.1 M K/Na phosphate buffer pH 7.5, 25 °C with the addition of 0.33 mM DTNB, 0.02 unit/mL of AChE or BChE, and 1 mM of substrate (ATCh or BTCh, respectively). The assays were carried out with a reagent blank containing all components except AChE or BChE to account for non-enzymatic hydrolysis of substrate. In addition, an enzyme blank was included that contained all components except substrate to account for non-substrate sulfhydryl groups. […] The assay solution consisted of 0.1 M K/Na phosphate buffer pH 8.0, 25 °C with the addition of 1 mM 4-nitrophenyl acetate and 0.02 unit/mL of CaE. Assays were carried out with a blank containing all components except CaE.
(§3) The test compounds were dissolved in DMSO; the incubation mixture contained 2% (v/v) of the solvent. […] The test compounds were added to the assay solution and preincubated at 25°C with the enzymes for 5 min followed by the addition of substrate. A parallel control was made for the assay solution with no inhibitor. […] Each experiment was performed three times. The results were expressed as the mean ± SEM. The reaction rates in the presence and absence of inhibitor were compared, and the percent of residual enzyme activity due to the presence of test compounds was calculated.

[3] = target: T2, human erythrocyte acetylcholinesterase (AChE) (Homo sapiens, UniProt P22303); assay: biochemical; type: biochemical; settings: mean ± SEM, n ≥ 3
T2 construct: Acetylcholinesterase (AChE, EC 3.1.1.7, from human erythrocyte); purchased Sigma-Aldrich (Germany); host or cells: human erythrocytes
Method: as §1, §2, §3

[4] = target: T3, equine serum butyrylcholinesterase (BChE) (Equus caballus, UniProt P81908); assay: biochemical; type: biochemical; settings: mean ± SEM, n ≥ 3
T3 construct: butyrylcholinesterase (BChE, EC 3.1.1.8, from equine serum); purchased Sigma-Aldrich (Germany); host or cells: equine serum
Method: as §1, §2, §3

[5] = target: T4, Electrophorus electricus AChE (EeAChE) (Electrophorus electricus, UniProt O42275); assay: biochemical; type: biochemical
T4 construct: from human erythrocyte and E. electricus (EeAChE) (type VI-S); purchased Sigma-Aldrich (Germany) type VI-S; host or cells: Electrophorus electricus tissue
Method: as §1, §2, §3

[6] = target: T5, AChE from human erythrocytes (Homo sapiens, UniProt P22303); type: biochemical; settings: for αKi (non-competitive component), AChE / Ki: Lineweaver-Burk analysis; for Ki: read-out: Ki (competitive component), AChE
T5 construct: Acetylcholinesterase (AChE, EC 3.1.1.7, from human erythrocyte); purchased Sigma-Aldrich (Germany); host or cells: human erythrocytes
Method: To elucidate the inhibition mechanisms for the active compounds, the AChE and BChE residual activity was determined in the presence of 3 increasing concentrations of the test compounds and 6 decreasing concentrations of the substrates. The test compounds were preincubated with the enzymes at 25 °C for 5 min, followed by the addition of the substrates. Parallel controls were made for an assay of the rate of hydrolysis of the same concentrations of substrates in the solutions with no inhibitor. […] Each experiment was performed three times.

[7] = test system: isolated rat liver mitochondria; assay: Restoration of mitochondrial membrane potential after rotenone-induced depolarization; type: biochemical; settings: 3 μM compound
Excerpt: Therefore, we examined the ability of MB, MBH2, and compound 3 to restore membrane potential after depolarization with rotenone. […] It is important to note that successive additions of calcium and the uncoupler carbonyl cyanide m-chlorophenyl hydrazone (CCCP) each caused mitochondrial depolarization (Fig. 6). […]

[8] = mean ± SEM, n ≥ 3, read-out: EeAChE IC50

T4 sequence (O42275 24-633): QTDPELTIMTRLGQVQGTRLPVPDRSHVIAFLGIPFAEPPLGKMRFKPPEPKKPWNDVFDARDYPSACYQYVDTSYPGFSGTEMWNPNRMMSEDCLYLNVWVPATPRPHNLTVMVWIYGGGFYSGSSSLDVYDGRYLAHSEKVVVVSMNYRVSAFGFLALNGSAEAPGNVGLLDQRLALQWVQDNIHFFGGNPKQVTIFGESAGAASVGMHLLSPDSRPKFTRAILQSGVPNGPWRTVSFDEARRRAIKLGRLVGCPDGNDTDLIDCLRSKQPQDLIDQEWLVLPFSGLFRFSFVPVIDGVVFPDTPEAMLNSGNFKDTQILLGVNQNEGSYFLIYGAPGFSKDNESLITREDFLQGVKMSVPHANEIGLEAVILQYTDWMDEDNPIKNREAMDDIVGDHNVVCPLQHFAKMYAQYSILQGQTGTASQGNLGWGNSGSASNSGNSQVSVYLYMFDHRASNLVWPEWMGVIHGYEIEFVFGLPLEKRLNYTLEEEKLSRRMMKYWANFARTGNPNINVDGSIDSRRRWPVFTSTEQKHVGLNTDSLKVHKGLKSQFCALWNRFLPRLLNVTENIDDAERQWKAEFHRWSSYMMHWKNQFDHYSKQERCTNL
T5 sequence (P22303 32-617 isoform P22303-2 limits assumed): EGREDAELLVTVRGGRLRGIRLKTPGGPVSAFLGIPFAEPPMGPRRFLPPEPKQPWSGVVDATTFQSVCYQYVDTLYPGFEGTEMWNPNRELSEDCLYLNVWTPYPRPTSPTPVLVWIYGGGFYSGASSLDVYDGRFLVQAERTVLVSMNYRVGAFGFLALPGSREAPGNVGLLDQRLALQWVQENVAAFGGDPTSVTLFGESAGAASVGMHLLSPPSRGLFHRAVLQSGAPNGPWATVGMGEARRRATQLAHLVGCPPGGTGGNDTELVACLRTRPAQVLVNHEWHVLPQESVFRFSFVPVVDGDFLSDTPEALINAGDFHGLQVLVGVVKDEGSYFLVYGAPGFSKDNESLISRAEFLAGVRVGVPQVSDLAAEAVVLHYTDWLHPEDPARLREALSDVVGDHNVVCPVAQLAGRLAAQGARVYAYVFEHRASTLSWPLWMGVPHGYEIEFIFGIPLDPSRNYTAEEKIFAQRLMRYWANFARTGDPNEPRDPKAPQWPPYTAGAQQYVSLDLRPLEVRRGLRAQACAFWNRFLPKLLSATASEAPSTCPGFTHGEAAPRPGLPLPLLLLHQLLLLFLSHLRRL
T2 sequence (P22303 32-617 isoform P22303-2 limits assumed): as above
T3 sequence (P81908 whole entry): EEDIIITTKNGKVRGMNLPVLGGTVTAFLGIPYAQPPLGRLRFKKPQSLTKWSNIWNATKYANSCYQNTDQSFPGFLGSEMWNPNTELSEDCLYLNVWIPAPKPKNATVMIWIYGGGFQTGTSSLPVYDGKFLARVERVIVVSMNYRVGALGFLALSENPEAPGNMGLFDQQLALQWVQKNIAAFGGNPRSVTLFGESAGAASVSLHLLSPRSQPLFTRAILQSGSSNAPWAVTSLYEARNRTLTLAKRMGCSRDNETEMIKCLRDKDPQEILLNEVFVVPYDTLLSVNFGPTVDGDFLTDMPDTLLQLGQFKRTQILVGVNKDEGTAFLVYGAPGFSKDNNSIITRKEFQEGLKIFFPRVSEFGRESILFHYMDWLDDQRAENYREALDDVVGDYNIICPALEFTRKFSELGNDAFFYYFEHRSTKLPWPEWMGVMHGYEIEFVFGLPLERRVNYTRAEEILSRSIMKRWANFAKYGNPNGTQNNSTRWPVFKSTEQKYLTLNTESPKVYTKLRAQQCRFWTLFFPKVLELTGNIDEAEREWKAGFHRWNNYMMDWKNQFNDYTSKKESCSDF

SMILES	ABTS·+ scavenging activity, TEAC value [1]	IC50 [1] [µM]	% inhibition of CaE at 20 µM [2] [%]	IC50 [2] [µM]	IC50 [3] [µM]	IC50 [4] [µM]	IC50 [5, 8] [µM]	inhibition at 20 µM [2] [%]	αKi (non-competitive component), AChE [6] [µM]	Ki [6] [µM]	radical-scavenging activity, ABTS method [1]	recovery of ΔΨm after rotenone-induced depolarization [7]	IC50 [5] [µM]	type of AChE inhibition ([6]; Lineweaver-Burk plots, changes in Vmax and Km)
CCN1CCc2c(c3cc(C)ccc3n2CCC(=O)N2c3ccc(N(C)C)cc3Sc3cc(N(C)C)ccc32)C1.Cl.Cl.Cl [Compound 4]	0.99 ± 0.08	20.5 ± 2.05	15.7 ± 1.8	> 20	4.03 ± 0.36	17.9 ± 1.4	0.65 ± 0.05							
CCCN1CCc2c(c3cc(C)ccc3n2CCC(=O)N2c3ccc(N(C)C)cc3Sc3cc(N(C)C)ccc32)C1.Cl.Cl.Cl [Compound 5]	0.99 ± 0.05	19.6 ± 1.82	9.8 ± 1.4	> 20	3.95 ± 0.21	8.42 ± 0.83	0.8 ± 0.07							
CN1CCc2c(c3cc(F)ccc3n2CCC(=O)N2c3ccc(N(C)C)cc3Sc3cc(N(C)C)ccc32)C1 [Compound 7]	1.08 ± 0.08	19 ± 2.28		> 20	6.86 ± 0.32	10.5 ± 0.9	2.09 ± 0.19	13.8						
Cc1ccc2c(c1)c1c(n2CCC(=O)N2c3ccc(N(C)C)cc3Sc3cc(N(C)C)ccc32)CCN(C(C)C)C1.Cl.Cl.Cl [Compound 6]	0.96 ± 0.07	21.2 ± 1.75	19.5 ± 1.8	> 20	7.37 ± 0.42	0.97 ± 0.05	1.07 ± 0.08		13.4 ± 1.2	3.52 ± 0.29				
CN1CCc2c(c3ccccc3n2CCC(=O)N2c3ccc(N(C)C)cc3Sc3cc(N(C)C)ccc32)C1.Cl.Cl.Cl [Compound 1]	0.63 ± 0.045	35.4 ± 3.4	21.5 ± 2.3	> 20	3.17 ± 0.13	5.94 ± 0.55	0.83 ± 0.03							
CCN1CCc2c(c3ccccc3n2CCC(=O)N2c3ccc(N(C)C)cc3Sc3cc(N(C)C)ccc32)C1.Cl.Cl.Cl [Compound 2]	1.03 ± 0.07	19.1 ± 1.52	18.1 ± 1.7	> 20	2.95 ± 0.07	2.53 ± 0.22	0.67 ± 0.04							
CN(C)c1ccc2nc3ccc(=[N+](C)C)cc-3sc2c1 [MB, methylene blue, reference compound]				> 20		11.1 ± 0.1		12.3			not detectable	recovered	0.21 ± 0.02	
CN(C)c1ccc2c(c1)Sc1cc(N(C)C)ccc1N2 [MBH2, leucomethylene blue, reference compound]				> 20	1.76 ± 0.09	10.7 ± 0.2		17.2			not detectable	recovered	0.28 ± 0.02	
Cc1ccc2c(c1)c1c(n2CCC(=O)N2c3ccc(N(C)C)cc3Sc3cc(N(C)C)ccc32)CCN(C)C1 [Compound 3]	0.79 ± 0.06	27.5 ± 1.64		> 20	1.73 ± 0.11	1.82 ± 0.14	1.47 ± 0.08	26	3.35 ± 0.31	0.88 ± 0.07		recovered		mixed-type inhibition
